Experimental data from patent US8952024B2, “Herbicidal pyrimidone derivatives” (E I du Pont de Nemours and Company, priority 2009, dated 2015).

Experiments:
Format in all cases: in vivo
rice (Oryza sativa) = assay: Test B flooded paddy test
Summary of the method: (§1)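 Ratings are visual, 0–100 (100 = complete control), taken versus untreated controls 13 to 15 days after treatment in the greenhouse. Compound went straight into paddy water held 3 cm above soil, applied to 2-leaf-stage plants of four species.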

[1] = system: umbrella sedge (Cyperus difformis); assay: Test B flooded paddy test
Summary of the method: as §1

[2] = system: green foxtail (Setaria viridis); assay: Test B pre-/postemergence plant response
Summary of the method: (§2)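 Visual injury, 0–100 scale (100 = complete control), rated against controls after 13 to 15 days in greenhouse. Pre-emergence: seeds in loam/sand soil, treated at planting. Post-emergence: 1- to 4-leaf plants (2 to 18 cm) in peat/vermiculite medium. Compounds formulated in non-phytotoxic solvent with surfactant.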

[3] = system: ragweed (common ragweed, Ambrosia elatior); assay: Test B pre-/postemergence plant response
Summary of the method: as §2

[4] = system: blackgrass (Alopecurus myosuroides); assay: Test B pre-/postemergence plant response
Summary of the method: as §2

[5] = system: pigweed (Amaranthus retroflexus); assay: Test B pre-/postemergence plant response
Summary of the method: as §2

corn (Zea mays) = assay: Test B pre-/postemergence plant response
Summary of the method: as §2

[6] = system: lambsquarters (Chenopodium album); assay: Test B pre-/postemergence plant response
Summary of the method: as §2

[7] = system: giant foxtail (Setaria faberii); assay: Test B pre-/postemergence plant response
Summary of the method: as §2

[8] = system: johnsongrass (Sorghum halepense); assay: Test B pre-/postemergence plant response
Summary of the method: as §2

wild oat (Avena fatua) = assay: Test B pre-/postemergence plant response
Summary of the method: as §2

[9] = system: Surinam grass (Brachiaria decumbens); assay: Test B pre-/postemergence plant response
Summary of the method: as §2

[10] = system: goosegrass (Eleusine indica); assay: Test B pre-/postemergence plant response
Summary of the method: as §2

[11] = 250 g ai/ha, flooded paddy test, visual rating on 0 to 100 scale (0 no effect, 100 complete control) after 13 to 15 days
[12] = Flood (flooded paddy test), 62 g ai/ha, scale of 0 to 100 where 0 is no effect and 100 is complete control, 13 to 15 days
[13] = 31 g ai/ha, postemergence, scale 0 to 100, 0 is no effect, 100 is complete control
[14] = 62 g ai/ha, postemergence, 0 is no effect, 100 is complete control, 13 to 15 days
[15] = Postemergence, 125 g ai/ha, scale 0 to 100 (0 no effect, 100 complete control)
[16] = Postemergence, 250 g ai/ha, scale 0 to 100 (0 no effect, 100 complete control)
[17] = Preemergence, 31 g ai/ha, scale 0 to 100 (0 no effect, 100 complete control)
[18] = Preemergence, 62 g ai/ha, scale 0 to 100 (0 no effect, 100 complete control)
[19] = Preemergence, 125 g ai/ha, scale 0 to 100, 0 no effect, 100 complete control
[20] = Preemergence, 250 g ai/ha, 0 to 100 scale

COCCCn1c(-c2cc(F)cc(F)c2)ncc(C(=O)C2=C(O)CCCC2=O)c1=O [Compound 120]
Plant response rating, Flood, Rice (rice (Oryza sativa); [11]): 40 | Plant response rating, Rice (rice (Oryza sativa); [12]): 0 | Plant response rating, Flood, Sedge, Umbrella [1, 11]: 75 | Plant response rating, Sedge, Umbrella [1, 12]: 40 | Plant response rating, Foxtail, Green [2, 13]: 90 | Foxtail, Green plant response rating (0 to 100 scale) [2, 14]: 95 | Plant response rating, Foxtail, Green [2, 15]: 95 | Plant response rating, Foxtail, Green [2, 16]: 100 | Plant response rating, Foxtail, Green [2, 17]: 95 | Plant response rating, Foxtail, Green [2, 18]: 98 | Plant response rating, Foxtail, Green [2, 19]: 100 | Foxtail, Green plant response rating [2, 20]: 100 | Ragweed plant response rating (0 to 100 scale) [3, 14]: 75 | Plant response rating, Ragweed [3, 15]: 75 | Plant response rating, Ragweed [3, 16]: 80 | Plant response rating, Ragweed [3, 17]: 80 | Plant response rating, Ragweed [3, 18]: 80 | Plant response rating, Ragweed [3, 19]: 95 | Ragweed plant response rating [3, 20]: 95 | Plant response rating, Blackgrass [4, 13]: 30 | Blackgrass plant response rating (0 to 100 scale) [4, 14]: 30 | Plant response rating, Blackgrass [4, 15]: 60 | Plant response rating, Blackgrass [4, 16]: 60 | Plant response rating, Blackgrass [4, 17]: 5 | Plant response rating, Blackgrass [4, 18]: 50 | Plant response rating, Blackgrass [4, 19]: 50 | Blackgrass plant response rating [4, 20]: 50 | Plant response rating, Pigweed [5, 13]: 95 | Pigweed plant response rating (0 to 100 scale) [5, 14]: 98 | Plant response rating, Pigweed [5, 15]: 100 | Plant response rating, Pigweed [5, 16]: 100 | Plant response rating, Pigweed [5, 17]: 95 | Plant response rating, Pigweed [5, 18]: 100 | Plant response rating, Pigweed [5, 19]: 100 | Pigweed plant response rating [5, 20]: 100 | Plant response rating, Corn (corn (Zea mays); [13]): 15 | Corn plant response rating (0 to 100 scale) (corn (Zea mays); [14]): 20 | Plant response rating, Corn (corn (Zea mays); [15]): 50 | Plant response rating, Corn (corn (Zea mays); [16]): 75 | Plant response rating, Corn (corn (Zea mays); [17]): 0 | Plant response rating, Corn (corn (Zea mays); [19]): 25 | Corn plant response rating (corn (Zea mays); [20]): 55 | Plant response rating, Lambsquarters [6, 13]: 80 | Lambsquarters plant response rating (0 to 100 scale) [6, 14]: 85 | Plant response rating, Lambsquarters [6, 15]: 98 | Plant response rating, Lambsquarters [6, 16]: 100 | Plant response rating, Lambsquarters [6, 17]: 100 | Plant response rating, Lambsquarters [6, 18]: 100 | Plant response rating, Lambsquarters [6, 19]: 100 | Lambsquarters plant response rating [6, 20]: 100 | Plant response rating, Foxtail, Giant [7, 13]: 75 | Foxtail, Giant plant response rating (0 to 100 scale) [7, 14]: 80 | Plant response rating, Foxtail, Giant [7, 15]: 85 | Plant response rating, Foxtail, Giant [7, 16]: 98 | Plant response rating, Foxtail, Giant [7, 17]: 75 | Plant response rating, Foxtail, Giant [7, 18]: 98 | Plant response rating, Foxtail, Giant [7, 19]: 98 | Foxtail, Giant plant response rating [7, 20]: 100 | Plant response rating, Johnsongrass [8, 13]: 15 | Johnsongrass plant response rating (0 to 100 scale) [8, 14]: 25 | Plant response rating, Johnsongrass [8, 15]: 75 | Plant response rating, Johnsongrass [8, 16]: 80 | Plant response rating, Johnsongrass [8, 17]: 35 | Plant response rating, Johnsongrass [8, 18]: 70 | Plant response rating, Johnsongrass [8, 19]: 80 | Johnsongrass plant response rating [8, 20]: 90 | Plant response rating, Oat, Wild (wild oat (Avena fatua); [13]): 50 | Oat, Wild plant response rating (0 to 100 scale) (wild oat (Avena fatua); [14]): 80 | Plant response rating, Oat, Wild (wild oat (Avena fatua); [15]): 80 | Plant response rating, Oat, Wild (wild oat (Avena fatua); [16]): 95 | Plant response rating, Oat, Wild (wild oat (Avena fatua); [17]): 0 | Plant response rating, Oat, Wild (wild oat (Avena fatua); [18]): 10 | Plant response rating, Oat, Wild (wild oat (Avena fatua); [19]): 65 | Oat, Wild plant response rating (wild oat (Avena fatua); [20]): 65 | Surinam Grass plant response rating (0 to 100 scale) [9, 14]: 85 | Plant response rating, Surinam Grass [9, 15]: 100 | Plant response rating, Surinam Grass [9, 16]: 100 | Plant response rating, Surinam Grass [9, 17]: 100 | Plant response rating, Surinam Grass [9, 18]: 100 | Plant response rating, Surinam Grass [9, 19]: 100 | Surinam Grass plant response rating [9, 20]: 100 | Plant response rating, Goosegrass [10, 13]: 75 | Goosegrass plant response rating (0 to 100 scale) [10, 14]: 80 | Plant response rating, Goosegrass [10, 15]: 85 | Plant response rating, Goosegrass [10, 16]: 98 | Plant response rating, Goosegrass [10, 17]: 100 | Plant response rating, Goosegrass [10, 18]: 100 | Plant response rating, Goosegrass [10, 19]: 100 | Goosegrass plant response rating [10, 20]: 100
